These are literature values, as cited in patent US20250085273A1, “NOVEL RAPID DRUG DISCOVERY FOR SEPSIS AND AGENTS FOR USE AS SEPSIS THERAPY” (priority 2023, published 2025).

Structures are written as SMILES.

This series concerns the target D2 receptor (Homo sapiens, UniProt P14416). The note with it: read-out: IC50 for D2 receptor; cited from earlier work.

Sequence of D2 receptor (P14416 whole entry): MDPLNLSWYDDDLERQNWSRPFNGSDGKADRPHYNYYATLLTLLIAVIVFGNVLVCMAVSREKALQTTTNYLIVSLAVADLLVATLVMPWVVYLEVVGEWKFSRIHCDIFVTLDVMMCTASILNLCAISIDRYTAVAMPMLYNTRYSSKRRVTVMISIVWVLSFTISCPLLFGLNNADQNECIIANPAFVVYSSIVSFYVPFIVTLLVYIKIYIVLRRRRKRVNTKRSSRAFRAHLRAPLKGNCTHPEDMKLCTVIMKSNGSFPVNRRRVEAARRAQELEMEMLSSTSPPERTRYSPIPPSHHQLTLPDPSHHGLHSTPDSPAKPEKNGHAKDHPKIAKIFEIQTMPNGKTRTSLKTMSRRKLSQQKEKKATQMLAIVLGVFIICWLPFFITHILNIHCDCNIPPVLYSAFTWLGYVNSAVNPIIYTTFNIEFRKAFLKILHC

As for `CN1CCN(CCCN2c3ccccc3Sc3ccc(C(F)(F)F)cc32)CC1` [Trifluoperazine], the IC50 (commonly the midpoint of a concentration-inhibition curve) was 1.2 nM.
